Assay results reported in article PMC10972756, “A helical fulcrum in eIF2B coordinates allosteric regulation of stress signaling” (Nature Chemical Biology, 2023).

How the values were obtained:
eIF2B(αβγδε)2 decamer [1] = target: T1, eIF2B(αβγδε)2 decamer (Homo sapiens, UniProt P49770+Q9UI10); test: fluorescence polarization, eIF2B titration; assay type: binding; settings: labelled compound; 2.5 nM FAM-ISRIB; 20 mM HEPES-KOH pH 7.5, 100 mM KCl, 5 mM MgCl2, 1 mM TCEP; 25 °C; ISRIB pocket; read-out: half-maximal effective concentration
T1 construct: gene EIF2B2; recombinant human eIF2Bα2 (pJT075) mixed with eIF2Bβγδε (pJT073 + pJT074 coexpression); heterodecamer; 2,369 unique amino acids; with Translation initiation factor eIF2B subunit alpha; Translation initiation factor eIF2B subunit gamma; Translation initiation factor eIF2B subunit epsilon

eIF2B(αβγδε)2 decamer [2] = target: T2, eIF2B(αβγδε)2 decamer (Homo sapiens, UniProt P49770+Q9UI10, Q9UI10:L516A); test: fluorescence polarization, eIF2B titration; assay type: binding; settings: labelled compound; 2.5 nM FAM-ISRIB; 20 mM HEPES-KOH pH 7.5, 100 mM KCl, 5 mM MgCl2, 1 mM TCEP; 25 °C; ISRIB pocket; read-out: half-maximal effective concentration
T2 construct: gene EIF2B2; recombinant human eIF2Bα2 (pJT075) mixed with eIF2Bβγδε (pJT073 + pJT074 coexpression); heterodecamer; 2,369 unique amino acids; with Translation initiation factor eIF2B subunit alpha; Translation initiation factor eIF2B subunit gamma; Translation initiation factor eIF2B subunit epsilon

eIF2B(αβγδε)2 decamer [3] = target: T3, eIF2B(αβγδε)2 decamer (Homo sapiens, UniProt P49770+Q9UI10, Q9UI10:E445A); test: fluorescence polarization, eIF2B titration; assay type: binding; settings: labelled compound; 2.5 nM FAM-ISRIB; 20 mM HEPES-KOH pH 7.5, 100 mM KCl, 5 mM MgCl2, 1 mM TCEP; 25 °C; ISRIB pocket; read-out: half-maximal effective concentration
T3 construct: gene EIF2B2; recombinant human eIF2Bα2 (pJT075) mixed with eIF2Bβγδε (pJT073 + pJT074 coexpression); heterodecamer; 2,369 unique amino acids; with Translation initiation factor eIF2B subunit alpha; Translation initiation factor eIF2B subunit gamma; Translation initiation factor eIF2B subunit epsilon

eIF2B(αβγδε)2 decamer [4] = target: T4, eIF2B(αβγδε)2 decamer (Homo sapiens, UniProt P49770+Q9UI10, Q9UI10:F443A); test: fluorescence polarization, eIF2B titration; assay type: binding; settings: labelled compound; 2.5 nM FAM-ISRIB; 20 mM HEPES-KOH pH 7.5, 100 mM KCl, 5 mM MgCl2, 1 mM TCEP; 25 °C; ISRIB pocket; read-out: half-maximal effective concentration
T4 construct: gene EIF2B2; recombinant human eIF2Bα2 (pJT075) mixed with eIF2Bβγδε (pJT073 + pJT074 coexpression); heterodecamer; 2,369 unique amino acids; with Translation initiation factor eIF2B subunit alpha; Translation initiation factor eIF2B subunit gamma; Translation initiation factor eIF2B subunit epsilon

eIF2B(αβγδε)2 decamer [5] = target: T1, eIF2B(αβγδε)2 decamer; test: hydrogen-deuterium exchange mass spectrometry; assay type: binding; settings: 20 mM HEPES, 200 mM KCl, 5 mM MgCl2, 1 mM TCEP, pH 7.9; ISRIB pocket, groove between eIF2Bβ and eIF2Bδ'; allosteric
[6] = target: the molecule itself; test: cryo-EM structure; 20 µM eIF2Bδ^L516A βγδε incubated with 11 µM eIF2Bα2 in 20 mM HEPES-KOH, 200 mM KCl, 5 mM MgCl2, 1 mM TCEP; diluted to 750 nM for grids
eIF2Bβγδ^E445Aε tetramer = eIF2Bβγδ^E445Aε tetramer (human, UniProt P49770 2-351; Q9NR50 1-452; Q9UI10 1-523; Q13144 1-721, δE445A); test: AUC; sedimentation velocity, 40,000 r.p.m., 20 °C, 20 mM HEPES-KOH pH 7.5, 150 mM KCl, 1 mM TCEP, 5 mM MgCl2; tetramer mixed with eIF2Bα2 (2:1 or 1:1 tetramer:dimer); continuous c(S) distribution; settings: both partners purified
eIF2Bβγδ^F443Aε tetramer = eIF2Bβγδ^F443Aε tetramer (human, UniProt P49770 2-351; Q9NR50 1-452; Q9UI10 1-523; Q13144 1-721, δF443A); test: as above; settings: both partners purified

FAM-ISRIB
EC50 (eIF2B(αβγδε)2 decamer [1]): 38 ± 2 nM
EC50 (eIF2B(αβγδε)2 decamer [2]): 169 ± 34 nM
EC50 (eIF2B(αβγδε)2 decamer [3]): 30 ± 2 nM
EC50 (eIF2B(αβγδε)2 decamer [4]): 50 ± 8 nM

O=C(COc1ccc(Cl)c(F)c1)NC12CC(NC(=O)c3cnc(C(F)F)cn3)(C1)C2 [2BAct]
hydrogen-deuterium exchange mass spectrometry (eIF2B(αβγδε)2 decamer [5]): We also observed protection in peptides at the 2BAct binding site

B1: eIF2Bα2 dimer, wild type (complex, human)
chain: DDKELIEYFKSQMKEDPDMASAVAAIRTLLEFLKRDKGETIQGLRANLTSAIETLCGVDSSVAVSSGGELFLRFISLASLEYSDYSKCKKIMIERGELFLRRISLSRNKIADLCHTFIKDGATILTHAYSRVVLRVLEAAVAAKKRFSVYVTESQPDLSGKKMAKALCHLNVPVTVVLDAAVGYIMEKADLVIVGAEGVVENGGIINKIGTNQMAVCAKAQNKPFYVVAESFKFVRLFPLNQQDVPDKFKYKADTLKVAQTGQDLKEEHPWVDYTAPSLITLLFTDLGVLTPSAVSDELIKLYL
notes: also called eIFBα2
binding result [6]: binds
binding result (eIF2Bβγδ^E445Aε tetramer): binds
binding result (eIF2Bβγδ^F443Aε tetramer): binds
